Read-outs that look alike come from different tables or passages of the source.
Biological target: T1, rat mGluR1 (metabotropic glutamate receptor 1) (Rattus norvegicus, UniProt P23385)
T1 construct: expressed in transfected cells; host or cells: CHO (Chinese hamster ovary) cells
Test: mGluR1 antagonistic effect as assessed with reference to intracellular Ca2+ response in mGluR1 expressing CHO cells (Fura-2 fluorometry)
Assay type: cell-based
Details: Intracellular Ca2+ release induced by 10 μM glutamic acid
Excerpt: Evaluation Example 1. mGluR1 antagonistic effect as assessed with reference to intracellular Ca^2+ response in mGluR1 expressing CHO cells
Since mGluR1 (metabotropic glutamate receptor 1) induces release of Ca^2+ from intracellular Ca^2+ storage sites via the formation of inositol-1,4,5-triphosphate in the pathway of the intracellular signaling system, it is possible to evaluate the antagonistic activity of the compounds of the invention against mGluR1 with reference to intracellular Ca^2+ response in CHO cells in which recombinant rat mGluR1 gene is transfected.
The present inventors applied this evaluation system to assess the mGluR1 antagonistic activity of the compounds provided by this invention using CHO cells in which rat mGluR1 gene is expressed [S. Nakanishi et al.: Neuron, 8, 757 (1992)]. Intracellular Ca^2+ release induced by 10 μM glutamic acid in the presence of various concentrations of the compounds of the present invention added to culture medium was measured by fluorometry with Fura -2 [H. Sugino et al.: Brain Res., 322,127 (1984)]. The antagonistic effect against the induced intracellular Ca^2+ elevation was thus assessed by comparison with the control response in the absence of the test compounds.

[1] = read-out: 50% inhibitory concentrations (IC50), bound stated

T1 sequence (P23385 19-1199): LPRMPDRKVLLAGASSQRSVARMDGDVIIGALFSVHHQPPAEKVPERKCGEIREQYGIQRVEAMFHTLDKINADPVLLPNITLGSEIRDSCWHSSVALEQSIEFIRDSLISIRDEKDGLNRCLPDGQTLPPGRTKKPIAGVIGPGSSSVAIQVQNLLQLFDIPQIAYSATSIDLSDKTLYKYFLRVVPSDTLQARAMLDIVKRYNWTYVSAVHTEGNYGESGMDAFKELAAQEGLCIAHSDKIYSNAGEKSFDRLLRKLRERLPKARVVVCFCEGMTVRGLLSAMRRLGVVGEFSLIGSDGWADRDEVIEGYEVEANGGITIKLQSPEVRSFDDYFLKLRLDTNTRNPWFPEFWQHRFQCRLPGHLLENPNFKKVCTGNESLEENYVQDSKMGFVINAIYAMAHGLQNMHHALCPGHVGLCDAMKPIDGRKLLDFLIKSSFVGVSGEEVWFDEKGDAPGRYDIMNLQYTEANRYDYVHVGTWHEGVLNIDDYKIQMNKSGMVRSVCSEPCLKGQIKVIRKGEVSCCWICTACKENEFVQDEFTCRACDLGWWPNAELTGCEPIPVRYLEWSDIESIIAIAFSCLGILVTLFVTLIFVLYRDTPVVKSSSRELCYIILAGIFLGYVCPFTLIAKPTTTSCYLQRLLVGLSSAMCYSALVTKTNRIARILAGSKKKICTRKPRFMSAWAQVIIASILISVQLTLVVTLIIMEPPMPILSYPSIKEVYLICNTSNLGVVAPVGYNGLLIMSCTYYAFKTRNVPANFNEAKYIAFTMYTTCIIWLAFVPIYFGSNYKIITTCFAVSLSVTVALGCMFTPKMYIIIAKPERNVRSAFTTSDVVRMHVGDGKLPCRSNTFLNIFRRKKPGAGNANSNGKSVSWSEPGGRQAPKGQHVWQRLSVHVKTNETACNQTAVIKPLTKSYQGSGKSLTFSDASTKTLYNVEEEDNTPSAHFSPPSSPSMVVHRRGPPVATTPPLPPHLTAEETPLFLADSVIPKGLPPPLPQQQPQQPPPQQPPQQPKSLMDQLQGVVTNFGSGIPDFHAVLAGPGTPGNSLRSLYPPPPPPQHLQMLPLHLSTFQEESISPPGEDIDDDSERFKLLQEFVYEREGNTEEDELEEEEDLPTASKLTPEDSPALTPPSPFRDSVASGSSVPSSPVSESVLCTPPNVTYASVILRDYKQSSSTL

Compound | IC50 (Table 3, read-out: IC50) [µM] | IC50 [1] [µM]
N[C@H](C(=O)O)c1ccc(C(=O)O)cc1 [(S)-4CPG, reference compound] | 200 | 
CC(C)COC(=O)C12CC1C(=NO)c1ccccc1O2 (stereo not drawn) [Example 34] | 20 | ≤ 100
COc1ccc(N(C)C(=O)C23CC2C(=NO)c2ccccc2O3)cc1 (stereo not drawn) [Example 41, 1a-(N-4-methoxyphenyl-N-methyl)carbamoyl-1a, 7a-dihydro-7(1H)-hydroxyimino-cyclopropa[b]chromen] | 100 | ≤ 100
CN(C(=O)C12CC1C(=NO)c1ccccc1O2)c1ccc(Cl)cc1 (stereo not drawn) [Example 42, 1a-(N-4-chlorophenyl-N-methyl)-carbamoyl-1a, 7a-dihydro-7(1H)-hydroxyiminocyclopropa-[b]chromen] | 100 | ≤ 100
O=C(N1CCN(c2ccc(F)cc2)CC1)C12CC1C(=NO)c1ccccc1O2 (stereo not drawn) [Example 53, 1a-(1-(4-fluorophenyl)-piperazinyl)arbonyl-1a, 7a-dihydro-7(1H)-hydroxyiminocyclopropa[b]chromen] | 100 | ≤ 100
CC(N)(C(=O)O)c1ccc(C(=O)O)cc1 (stereo not drawn) [MCPG, reference compound] | 700 | 

Continued, values first:

IC50 (Table 3, read-out: IC50) [µM] | IC50 [1] [µM] | Compound
23 | ≤ 100 | CCOC(=O)C12CC1C(=NO)c1ccccc1O2 (stereo not drawn) [Example 32, 1a-ethoxycarbonyl-1a, 7a-dihydro-7(1H)-hydro-xyiminocyclopropa [b]chromen]
3 | ≤ 100 | O=C(Nc1ccccc1)C12CC1C(=NO)c1ccccc1O2 (stereo not drawn) [Example 35, 1a-(N-phenyl)carbamoyl-1a, 7a-dihydro-7(1H)-hydroxyiminocyclopropa[b]chromen]
10 | ≤ 100 | CN(C(=O)C12CC1C(=NO)c1ccccc1O2)c1ccccc1 (stereo not drawn) [Example 36, 1a-(N-methyl-N-phenyl)carbamoyl-1a, 7a-dihydro-7(1H)-hydroxyiminocyclopropa[b]chromen]
20 | ≤ 100 | CN(Cc1ccccc1)C(=O)C12CC1C(=NO)c1ccccc1O2 (stereo not drawn) [Example 43, 1a-(N-benzyl-N-methyl)carbamoyl-1a, 7a-dihydro-7(1H)-hydroxyiminocyclopropa[b]chromen]

From US5843988A, “Cyclopropachromencarboxylic acid derivatives” (Suntory Limited, priority 1995, dated 1998)
